According to US12583938B2, “Protein biomarker and uses thereof” (Daiichi Sankyo Co., Ltd., priority 2013, dated 2026):

System: Stage IIIb/IV NSCLC
Protocol: In both portions of the study, subjects received 150 mg of erlotinib orally once daily. […] Tumors were to be assessed every 6 weeks (±3 days) up to the first 24 weeks of the study, then every 12 weeks (±7 days) independent of treatment cycle.
An “HRG high” subject was defined as a subject with observed soluble HRG concentration of higher than 980 pg/mL, the Quartile 3 of the sample set. Soluble HRC concentration was measured by the improved ELISA method disclosed herein.
At the point of primary analysis, the treatment assignment for all subjects was unblinded to designated study personnel for analysis after data were reconciled and cleaned, and a snapshot of the clean database was created. To minimize potential bias, individual treatment assignment was not divulged to subjects or Investigators until study closure.
All efficacy analyses were performed on the full analysis set, which includes all subjects in the randomized analysis set who received at least one dose of randomized study medication. The primary efficacy endpoint was PFS. PFS is defined as the time from the date of randomization to the earlier of the dates of the first objective documentation of radiographic disease progression or death due to any cause. A subject who was alive with no objective documentation of (radiographic) disease progression by the data cut-off date was to be censored at the date of the last evaluable tumor assessment. The key secondary efficacy endpoint, overall survival, was defined as the time from the date of randomization to death due to any cause and was analyzed in the same manner as the primary efficacy endpoint PFS.
Kaplan-Meier curves were generated for PFS and used to calculate medians and 95% CIs for each treatment group.
The stratification factors included histology (Adenocarcinoma vs Non-Adenocarcinoma) and best response to prior therapy (CR/PR/SD vs PD). […] Cox's proportional hazards model with the same stratification factors used for the stratified log-rank test.
Unless otherwise indicated, tog-rank p-values and HRs for PFS and OS were based on the primary analysis adjusted for the stratification factors at randomization as described above.

[1] = Placebo + erlotinib (N = 71), Enrolled/Randomized Analysis Set
[2] = Placebo + erlotinib (N = 71), Full Analysis Set

## C#Cc1cccc(Nc2ncnc3cc(OCCOC)c(OCCOC)cc23)c1 [erlotinib, reference compound]
[1]
  On-Study Death: 13 subjects
  Primary Cause of On-Study Death: Adverse Event: 5 subjects
  Primary Cause of On-Study Death: Disease Progression: 8 subjects
  Primary Reason for Discontinuing Study Treatment: Death: 4 subjects
  Primary Reason for Discontinuing Study Treatment: Progressive Disease (Radiographic Progression): 50 subjects
[2]
  OS: Subjects (%) with events: 48 (67.6%) subjects (%)
  OS: Subjects (%) without events (censored): 23 (32.4%) subjects (%)
  PFS: Subjects (%) with events: 59 (83.1%) subjects (%)
  PFS: Subjects (%) without events (censored): 12 (16.9%) subjects (%)
Placebo + erlotinib (N = 71), Full Analysis Set, Kaplan-Meier Estimate
  Progression-Free Survival, Time to event, Median: 1.6 months
Placebo + erlotinib (N = 71), Full Analysis Set, Kaplan-Meier Estimate, preliminary
  Overall Survival, Time to event, Median: 7.2 months
Placebo + erlotinib
  number of subjects with the response being CR/PR: 4 (5.6%) subjects (%)
